Experimental data taken from patent US20250352555A1, “METHOD OF INCREASING IMMUNE CELL ACTIVATION AND/OR TREATING CANCER USING DIBENZOXAZEPINONES” (VASCULAR THERAPEUTICS PTY LTD, priority 2022, published 2025).
Where “and” joins values, the source holds several entries; their conditions need not be identical. Identical values can stand only once.

Columns and labels:
p-ERK = experiment: Immunohistochemistry of B16F10 tumors (Day 17), p-ERK; assay type: in vivo, mouse; settings: B16F10 tumors Day 17, 200 mg/kg i.p.
Text: (§1) Immunohistochemical staining and analyses. Rabbit monoclonal anti-CD3 (cat. no. ab16669; mouse, rat and human reactive), rabbit monoclonal anti-PD-1 (cat. no. ab214421), rabbit monoclonal anti-CD68 (cat. no. ab125212) antibodies were obtained from Abcam, rabbit monoclonal anti-phospho-ERK (Thr^202/Tyr^204) (cat. no. CST4370), rabbit monoclonal total ERK (cat. no. CST4695), antibodies were obtained from Cell Signaling Technology. Rabbit polyclonal anti-PD-L1 (cat. no. PA5-20343) antibody was obtained from ThermoFisher.
(§2) Formalin fixed, paraffin embedded sections were prepared from tumors. Heat-induced epitope retrieval was applied to all deparaffinized sections (4 μm sections on Superfrost slides) with citrate buffer, pH 6.0 for 5 min at 110° C. […] Integrated optical density (IOD) or area of positive staining (red chromagen) was assessed using Image-Pro Plus software (Cybernetics, Bethesda, MD, USA). Positive staining was the average of quantitation in 4-8 fields of view under 20× or 40× objectives.
To assess the effect of BT2 in the same model, C57BL/6J mice bearing s.c. B16F10 tumors were administered with BT2 or vehicle (200 mg/kg or 20 ml/kg, respectively, i.p.) once a day on a 5 days-on/2 days-off schedule. […] Tumor size on Day 17 measured using callipers (FIG. 10A) correlated with isolated weighed tumors (FIG. 10B).

CD3 = experiment: Immunohistochemistry of B16F10 tumors (Day 17), CD3; assay type: in vivo, mouse; settings: B16F10 tumors Day 17, 200 mg/kg i.p.
Text: as §1
as §2, with “C. Sections were blocked with Dual Endogenous Enzyme Block (DAKO, S2003) for 10 min and then with 2% skim milk for 20 min. Slides were incubated with primary antibody for 60 min at room temperature or overnight at 4° C. and then for 10 min with probe of MACH3 Rabbit AP-Polymer Detection solution (Biocare Medical, M3R533 G, H, L).” for “C.”, “objectives. […]” for “objectives.”

p-JNK = experiment: Western blotting time course for p-JNK, Jurkat T cells; assay type: cell-based, human; settings: Western blot time course
Procedure: Western blotting. Cells were treated with compounds and times indicated and total cell lysates were prepared in RIPA buffer. Lysates (10 μg) were resolved by SDS-PAGE and transferred to Immobilon-P polyvinylidene difluoride (PVDF) membranes (Millipore, USA).
Membranes were blocked with 5% skim milk and incubated with rabbit monoclonal anti-c-Jun (Abcam, cat. no. ab32137; mouse, rat and human reactive) antibody, rabbit monoclonal anti-PD-1 (Abcam, cat. no. ab214421) antibody, mouse monoclonal β-actin antibody (Sigma-Aldrich, cat. no. A5316), anti-phospho-SAPK/JNK (Thr^183/Tyr^185) (98F2) (CST, cat. no. 4671) antibody, anti-phospho-p44/42 MAPK (ERK1/2) (Thr^202/Tyr^204) (D13.14.4E) (CST, cat. no. 4370) antibody, anti-phospho-p38 MAPK (Thr^180/Tyr^182) (D3F9) (CST, cat. no. 4511) antibody, anti-SAPK/JNK antibody (CST, cat. no. 9252), anti-p44/42 MAPK (ERK1/2) (137F5) antibody (CST, cat. no. 4695), anti-p38 MAPK antibody (CST, cat. no. 9212), anti-DUSP8 antibody (Abcam, cat. no. ab198175) or anti-c-MAF (BLR045F) antibody (Abcam, cat. no. ab243901). […] Chemiluminescence was detected using the Western Lightning Chemiluminescence system (Thermo Scientific, USA) and ImageQuant™ LAS 4000 biomolecular imager (GE Healthcare Life Sciences, USA). Band intensity in images generated with the LAS 4000 was quantified using NIH Image J. […]

[1] = Serum BT2 concentration by LC-MS in B16F10 tumor-bearing mice; assay type: in vivo; settings: mouse, intraperitoneal, Day 17, 200 mg/kg i.p., C57BL/6J mice
Procedure: Mass spectrometry. Proteins in serum (50 μl) were precipitated by diluting with acetone (150 μl). The mixture was left for 14 h at 4° C. and protein was pelleted by centrifugation (10 min at 14,000 g) and supernatant removed. The solution (10 μl) was diluted into 40 μl Buffer A (H2O (0.1% formic acid)) for MS analysis. BT2 standard was prepared by diluting stock suspension of BT2 ([…], 30 mg/ml) in Buffer A (990 μl) then diluting 10 μl of this in 990 μl followed by another 1 in 100 dilution. […] LC-MS was performed using a Thermo QExactive HF, Gold C18 column (50×2.1 mm) with Solvent A (H2O (0.1% formic acid) and Solvent B (H2O:CH3CN 20:80 (0.1% formic acid) with gradient T=0, 1% B, T=26 min, 100% B, T=27 min, 100%, T=27.1, 1% B, T=30 min, 1% B; column temperature 45° C. MS1 scan, m/z 140-800, 3×10^6 ions, max IT 25 msec, resolution 120,000 and Top 5 MS2 (2×10^5 ions, max IT 50 msec, resolution 30,000 and HCD 20, 30 50V). Extracted ion chromatograms (m/z 327.134±5 ppm) were obtained for blanks, standards and samples and integrated peak areas calculated and compared).
To assess the effect of BT2 in the same model, C57BL/6J mice bearing s.c. B16F10 tumors were administered with BT2 or vehicle (200 mg/kg or 20 ml/kg, respectively, i.p.) once a day on a 5 days-on/2 days-off schedule. Treatment commenced on Day 5 (FIG. 9A). […]

Question: What does the source list for CCOC(=O)Nc1ccc2c(c1)C(=O)N(CC)c1ccccc1O2 [BT2, (10-ethyl-11-oxo-10,11-dihydro-dibenzo[b,f][1,4]oxazepin-2-yl)-carbamic acid ethyl ester]?
Answer: ERK phosphorylation in tumors (IHC) (p-ERK): suppression of ERK phosphorylation; CD3+ staining in the tumor periphery (within 250 μm) (IHC) (CD3): stimulated CD3^+ staining in the tumor periphery; time to stimulation of JNK phosphorylation (p-JNK): ≤ 1 h; concentration at 17 day [1]: 4000 ng/mL and 12.3 µM
